# According to patent US12370198B2, “Pharmaceutical compositions and methods for treating psychiatric disorders” (LA PHARMATECH INC., priority 2022, dated 2025):
# How the values were obtained:
# [1] = tested on: major depressive disorder (MDD); assay: Clinical case treatment of patients with major depressive disorder; assay type: in vivo, human; conditions: for outcome of previous anti-depressant treatment of MDD: Example 2, person; for outcome of previous anti-depressant treatment of MDD / outcome of previous treatments of MDD symptoms: previous treatments; for outcome of previous treatments of MDD symptoms: Example 4, person; for improvement of MDD: alprazolam 5 mg for 2 weeks
# Procedure: A patient having no insomnia symptom was diagnosed with major depressive disorder (MDD) showing persistent sadness, loneliness, helpless, and hapless. […] Then they were prescribed with a combination of ebastine (30 mg) and alprazolam (5 mg) for 4 weeks.
# A patient with no insomnia symptom was diagnosed with major depressive disorder (MDD) with persistent sadness, lack of interest, and feeling lonely. […] Then they were treated with a combination of ebastine (30 mg) and alprazolam (0.5 mg) for 4 weeks from the second clinic visits.
# [2] = tested on: generalized anxiety disorder (GAD); assay: Clinical case treatment of patients with generalized anxiety disorder; assay type: in vivo, human; conditions: for improvement of GAD reported by patient: Example 1, person
# Procedure: A patient was diagnosed with generalized anxiety disorder (GAD) and they had no complaints of having insomnia. […] Then they were treated with the combination of ebastine (20 mg) and alprazolam (1 mg) for 2 weeks. […] The inventors believe the composition of two mechanisms of actions provided a new solution for treating their GAD which could not be treated with alprazolam and the like alone.
# A patient with no insomnia symptom order was diagnosed with GAD. The patient was treated with alprazolam (2 mg) for 2 weeks from their first clinic visit and alprazolam (4 mg) for 2 weeks from their second clinic visit. […] On the third clinic visit, the patient was prescribed with the combination of ebastine (10 mg) and alprazolam (4 mg). […] The inventors believe that the two compositions of two mechanisms of actions provided a new solution for treating their […] which could not be treated with other options.
# [3] = tested on: mild chronic depression (MCD); assay: Clinical case treatment of a patient with mild chronic depression; assay type: in vivo, human; conditions: Example 3
# Procedure: The patient was prescribed with ebastine 30 mg for 3 weeks from the first clinic visit. […] Then they were prescribed with a combination of ebastine (10 mg) and alprazolam (0.5 mg) for a 4-week treatment.
# [4] = tested on: premenstrual dysphoric disorder (PDD); assay: Clinical case treatment of a patient with premenstrual dysphoric disorder; assay type: in vivo, human
# Procedure: A patient with no insomnia symptom was diagnosed with premenstrual dysphoric disorder (PDD) with symptoms of persistent hopelessness, sadness, anxiety and frequent tearfulness on the first clinic visit and was provided with fluoxetine 40 mg for 3 weeks. […] Then the patient was prescribed with the combination of ebastine (20 mg) and alprazolam (2 mg) for 2 weeks.
# REM sleep = conditions: background studies; cited from earlier work
# [5] = tested on: release of prostaglandin D2 (PGD2) and leukotrienes C4/D4 (LTC4/D4); conditions: background statement; cited from earlier work
# allergic rhinitis = assay: Clinical case treatment of allergic rhinitis; assay type: in vivo, human; conditions: Example 3, person; ebastine 30 mg for 3 weeks
# Procedure: A patient with no insomnia symptom was having allergic rhinitis with itchy nose, mouth and eyes, frequent sneezing, watery eyes and coughing, and runny nose when they were diagnosed with mild chronic depression (MCD) but showing symptoms of sadness, lack of interest, loneliness and helpless, consistent frustration for 4 weeks with failed treatment history of allergic rhinitis. The patient was prescribed with ebastine 30 mg for 3 weeks from the first clinic visit. […] But their symptoms from MCD were persistent. […] Then they were prescribed with a combination of ebastine (10 mg) and alprazolam (0.5 mg) for a 4-week treatment.
# [6] = tested on: release of cytokines (GM-CSF, tumour necrosis factor-a, interleukin-8); conditions: background statement; cited from earlier work
smiles,measurement,setting,value
CC(NC(C)(C)C)C(=O)c1cccc(Cl)c1 (centres unmarked) [bupropion],outcome of previous anti-depressant treatment of MDD,[1],failed
same,outcome of previous treatments of MDD symptoms,[1],failed to improve
"Cc1nnc2n1-c1ccc(Cl)cc1C(c1ccccc1)=NC2 [alprazolam, 8-chloro-1-methyl-6-phenyl-4H-s-triazolo[4,3-a][1,4]benzodiazepine]",improvement of GAD reported by patient,[2]; alprazolam 0.5 mg for 2 weeks,no improvement
same,improvement of GAD reported by patient,[2]; alprazolam 2 mg for 2 weeks,no improvement
same,"improvement of GAD symptoms (anxiety, agitation, sweating, nausea, headaches)","[2]; Example 5, person, alprazolam (2 mg) for 2 weeks",failed to improve
same,"improvement of GAD symptoms (anxiety, agitation, sweating, nausea, headaches)","[2]; Example 5, alprazolam (4 mg) for 2 weeks",failed to improve
same,improvement of MDD,[1]; Example 2,no improvement
same,improvement of MDD,[1]; Example 4,20%
same,improvement of MCD symptoms,[3]; alprazolam 1 mg for 3 weeks,no improvement
same,improvement of PDD symptoms,"[4]; Example 6, alprazolam (2 mg) for 2 weeks",failed to improve
same,REM latency,REM sleep,increases
same,length of REM periods and frequency of REM burst activities,REM sleep,significantly decreases
CNCC[C@H](Oc1cccc2ccccc12)c1cccs1 [duloxetine],outcome of previous anti-depressant treatment of MDD,[1],failed
CC(C)(C(=O)O)c1ccc(C(=O)CCCN2CCC(OC(c3ccccc3)c3ccccc3)CC2)cc1 [carebastine],release of PGD2,[5],inhibits
"CC(C)(C)c1ccc(C(=O)CCCN2CCC(OC(c3ccccc3)c3ccccc3)CC2)cc1 [ebastine, 4-diphenylmethoxy-1-[3-(4-tert-butylbenzoyl)-propyl]piperidine]",symptoms from MCD,[3]; ebastine 30 mg for 3 weeks,persistent
same,recovery from allergic rhinitis,allergic rhinitis,complete recovery
same,anti-IgE-induced release of prostaglandin D2 (PGD2) and leukotrienes C4/D4 (LTC4/D4),[5],significantly inhibits
same,"release of cytokines, including GM-CSF, tumour necrosis factor-a and interleukin-8",[6],inhibited
CNCCC(Oc1ccc(C(F)(F)F)cc1)c1ccccc1 (centres unmarked) [fluoxetine],outcome of previous treatments of MDD symptoms,[1],failed to improve
same,improvement of PDD symptoms,"[4]; Example 6, person, fluoxetine 40 mg for 3 weeks",no improvement
